# Measurements from PMC10425983 (ACS Infectious Diseases, 2023).
# System: L. infantum (MHOM/MA(BE)/67/ITMAP263) amastigotes
# Experiment: L. infantum intramacrophage amastigote assay
# Assay type: cell-based, Leishmania infantum
# Conditions: Leishmania infantum, 120 h, read-out: L.inf pEC50 (converted)
row,Compound,EC50 [µM]
1,"CSc1ccc2nc(-c3ccccn3)c(Nc3ccc(F)cc3)n2c1 [Compound 3n, N-(4-Fluorophenyl)-6-(methylsulfanyl)-2-(pyridin-2-yl)imidazo[1,2-a]pyridin-3-amine]",7.94
2,"Fc1ccc(Nc2c(-c3ccccn3)nc3c(F)cccn23)cc1 [Compound 3k, 8-Fluoro-N-(4-fluorophenyl)-2-(pyridin-2-yl)imidazo[1,2-a]pyridin-3-amine]",39.8
3,"Fc1ccc(Nc2c(-c3ccccn3)nc3cccc(F)n23)cc1 [Compound 3b, 5-Fluoro-N-(4-fluorophenyl)-2-(pyridin-2-yl)imidazo[1,2-a]pyridin-3-amine]",7.94
4,"COc1ccn2cc(-c3ccccn3)nc2c1 [Compound 11b, 7-Methoxy-2-(pyridin-2-yl)imidazo[1,2-a]pyridine]",25.1
5,"CS(=O)(=O)c1ccc2nc(-c3ccccn3)c(Nc3ccc(F)cc3)n2c1 [Compound 3o, N-(4-Fluorophenyl)-6-methanesulfonyl-2-(pyridin-2-yl)imidazo[1,2-a]pyridin-3-amine]",31.6
6,"COc1ccn2c(Cl)c(-c3ccccn3)nc2c1 [Compound 12, 3-Chloro-7-methoxy-2-(pyridin-2-yl)imidazo[1,2-a]pyridine]",15.8

# Other lines, results leading:
row,EC50 [µM],Compound
1,7.94,"Fc1ccc(Nc2c(-c3ccccn3)nc3sccn23)cc1 [Compound 3r, N-(4-Fluorophenyl)-6-(pyridin-2-yl)imidazo[2,1-b][1,3]thiazol-5-amine]"
2,7.94,"COc1cccn2c(Nc3ccc(F)cc3)c(-c3ccccn3)nc12 [Compound 3l, N-(4-Fluorophenyl)-8-methoxy-2-(pyridin-2-yl)imidazo[1,2-a]pyridin-3-amine]"
3,7.94,"Fc1ccc(Nc2c(-c3ccccn3)nc3ccc(F)cn23)cc1 [Compound 3e, 6-Fluoro-N-(4-fluorophenyl)-2-(pyridin-2-yl)imidazo[1,2-a]pyridin-3-amine]"
4,2,"COc1ccc2nc(-c3ccccn3)c(Nc3ccc(F)cc3)n2c1 [Compound 3f, N-(4-Fluorophenyl)-6-methoxy-2-(pyridin-2-yl)imidazo[1,2-a]pyridin-3-amine]"
5,3.98,"Fc1ccc(Nc2c(-c3ccccn3)nc3ccccn23)cc1 [Compound 3a, N-(4-Fluorophenyl)-2-(pyridin-2-yl)imidazo[1,2-a]pyridin-3-amine]"

# Same assay, conditions: ratio CC50 μM (PMM)/EC50 μM (L.inf)
row,Compound,SI
1,"CSc1ccc2nc(-c3ccccn3)c(Nc3ccc(F)cc3)n2c1 [Compound 3n, N-(4-Fluorophenyl)-6-(methylsulfanyl)-2-(pyridin-2-yl)imidazo[1,2-a]pyridin-3-amine]",1
2,"Fc1ccc(Nc2c(-c3ccccn3)nc3sccn23)cc1 [Compound 3r, N-(4-Fluorophenyl)-6-(pyridin-2-yl)imidazo[2,1-b][1,3]thiazol-5-amine]",4
3,"Fc1ccc(Nc2c(-c3ccccn3)nc3c(F)cccn23)cc1 [Compound 3k, 8-Fluoro-N-(4-fluorophenyl)-2-(pyridin-2-yl)imidazo[1,2-a]pyridin-3-amine]",2
4,"Fc1ccc(Nc2c(-c3ccccn3)nc3cccc(F)n23)cc1 [Compound 3b, 5-Fluoro-N-(4-fluorophenyl)-2-(pyridin-2-yl)imidazo[1,2-a]pyridin-3-amine]",8
5,"COc1cccn2c(Nc3ccc(F)cc3)c(-c3ccccn3)nc12 [Compound 3l, N-(4-Fluorophenyl)-8-methoxy-2-(pyridin-2-yl)imidazo[1,2-a]pyridin-3-amine]",8
6,"Fc1ccc(Nc2c(-c3ccccn3)nc3ccc(F)cn23)cc1 [Compound 3e, 6-Fluoro-N-(4-fluorophenyl)-2-(pyridin-2-yl)imidazo[1,2-a]pyridin-3-amine]",6
7,"COc1ccn2cc(-c3ccccn3)nc2c1 [Compound 11b, 7-Methoxy-2-(pyridin-2-yl)imidazo[1,2-a]pyridine]",3
8,"CS(=O)(=O)c1ccc2nc(-c3ccccn3)c(Nc3ccc(F)cc3)n2c1 [Compound 3o, N-(4-Fluorophenyl)-6-methanesulfonyl-2-(pyridin-2-yl)imidazo[1,2-a]pyridin-3-amine]",1
9,"COc1ccn2c(Cl)c(-c3ccccn3)nc2c1 [Compound 12, 3-Chloro-7-methoxy-2-(pyridin-2-yl)imidazo[1,2-a]pyridine]",2
10,"COc1ccc2nc(-c3ccccn3)c(Nc3ccc(F)cc3)n2c1 [Compound 3f, N-(4-Fluorophenyl)-6-methoxy-2-(pyridin-2-yl)imidazo[1,2-a]pyridin-3-amine]",16
11,"Fc1ccc(Nc2c(-c3ccccn3)nc3ccccn23)cc1 [Compound 3a, N-(4-Fluorophenyl)-2-(pyridin-2-yl)imidazo[1,2-a]pyridin-3-amine]",16

# System: not listed separately
# Experiment: Cytotoxicity toward primary peritoneal mouse macrophages
# Assay type: cell-based
# Conditions: Swiss, mouse, primary peritoneal mouse macrophages (PMM), PMM pCC50, primary mouse macrophages; highest in-test concentration 64 μM
row,Compound,CC50 at 5 days [µM]
1,"CSc1ccc2nc(-c3ccccn3)c(Nc3ccc(F)cc3)n2c1 [Compound 3n, N-(4-Fluorophenyl)-6-(methylsulfanyl)-2-(pyridin-2-yl)imidazo[1,2-a]pyridin-3-amine]",7.94
2,"Fc1ccc(Nc2c(-c3ccccn3)nc3sccn23)cc1 [Compound 3r, N-(4-Fluorophenyl)-6-(pyridin-2-yl)imidazo[2,1-b][1,3]thiazol-5-amine]",31.6
3,"Fc1ccc(Nc2c(-c3ccccn3)nc3c(F)cccn23)cc1 [Compound 3k, 8-Fluoro-N-(4-fluorophenyl)-2-(pyridin-2-yl)imidazo[1,2-a]pyridin-3-amine]",> 63.1
4,"Fc1ccc(Nc2c(-c3ccccn3)nc3cccc(F)n23)cc1 [Compound 3b, 5-Fluoro-N-(4-fluorophenyl)-2-(pyridin-2-yl)imidazo[1,2-a]pyridin-3-amine]",> 63.1
5,"COc1cccn2c(Nc3ccc(F)cc3)c(-c3ccccn3)nc12 [Compound 3l, N-(4-Fluorophenyl)-8-methoxy-2-(pyridin-2-yl)imidazo[1,2-a]pyridin-3-amine]",> 63.1
6,"Fc1ccc(Nc2c(-c3ccccn3)nc3ccc(F)cn23)cc1 [Compound 3e, 6-Fluoro-N-(4-fluorophenyl)-2-(pyridin-2-yl)imidazo[1,2-a]pyridin-3-amine]",50.1
7,"COc1ccn2cc(-c3ccccn3)nc2c1 [Compound 11b, 7-Methoxy-2-(pyridin-2-yl)imidazo[1,2-a]pyridine]",> 63.1
8,"CS(=O)(=O)c1ccc2nc(-c3ccccn3)c(Nc3ccc(F)cc3)n2c1 [Compound 3o, N-(4-Fluorophenyl)-6-methanesulfonyl-2-(pyridin-2-yl)imidazo[1,2-a]pyridin-3-amine]",31.6
9,"COc1ccn2c(Cl)c(-c3ccccn3)nc2c1 [Compound 12, 3-Chloro-7-methoxy-2-(pyridin-2-yl)imidazo[1,2-a]pyridine]",31.6
10,"COc1ccc2nc(-c3ccccn3)c(Nc3ccc(F)cc3)n2c1 [Compound 3f, N-(4-Fluorophenyl)-6-methoxy-2-(pyridin-2-yl)imidazo[1,2-a]pyridin-3-amine]",31.6

# System: primary peritoneal mouse macrophages (PMM)
# Experiment: as above
# Assay type: cell-based
# Conditions: primary mouse macrophages; highest in-test concentration 64 μM
row,Compound,PMM pCC50
1,"Fc1ccc(Nc2c(-c3ccccn3)nc3ccccn23)cc1 [Compound 3a, N-(4-Fluorophenyl)-2-(pyridin-2-yl)imidazo[1,2-a]pyridin-3-amine]",< 4.2

# System: not listed separately
# Experiment: Thermodynamic aqueous solubility
# Assay type: physicochemical
# Conditions: not given
row,Compound,aq. sol. [µM]
1,"CSc1ccc2nc(-c3ccccn3)c(Nc3ccc(F)cc3)n2c1 [Compound 3n, N-(4-Fluorophenyl)-6-(methylsulfanyl)-2-(pyridin-2-yl)imidazo[1,2-a]pyridin-3-amine]",0.5
2,"Fc1ccc(Nc2c(-c3ccccn3)nc3c(F)cccn23)cc1 [Compound 3k, 8-Fluoro-N-(4-fluorophenyl)-2-(pyridin-2-yl)imidazo[1,2-a]pyridin-3-amine]",12
3,"Fc1ccc(Nc2c(-c3ccccn3)nc3cccc(F)n23)cc1 [Compound 3b, 5-Fluoro-N-(4-fluorophenyl)-2-(pyridin-2-yl)imidazo[1,2-a]pyridin-3-amine]",26
4,"COc1ccn2cc(-c3ccccn3)nc2c1 [Compound 11b, 7-Methoxy-2-(pyridin-2-yl)imidazo[1,2-a]pyridine]",723
5,"CS(=O)(=O)c1ccc2nc(-c3ccccn3)c(Nc3ccc(F)cc3)n2c1 [Compound 3o, N-(4-Fluorophenyl)-6-methanesulfonyl-2-(pyridin-2-yl)imidazo[1,2-a]pyridin-3-amine]",5
6,"COc1ccn2c(Cl)c(-c3ccccn3)nc2c1 [Compound 12, 3-Chloro-7-methoxy-2-(pyridin-2-yl)imidazo[1,2-a]pyridine]",562

# Continued, values first:
row,aq. sol. [µM],Compound
1,76,"Fc1ccc(Nc2c(-c3ccccn3)nc3sccn23)cc1 [Compound 3r, N-(4-Fluorophenyl)-6-(pyridin-2-yl)imidazo[2,1-b][1,3]thiazol-5-amine]"
2,2,"COc1cccn2c(Nc3ccc(F)cc3)c(-c3ccccn3)nc12 [Compound 3l, N-(4-Fluorophenyl)-8-methoxy-2-(pyridin-2-yl)imidazo[1,2-a]pyridin-3-amine]"
3,25,"Fc1ccc(Nc2c(-c3ccccn3)nc3ccc(F)cn23)cc1 [Compound 3e, 6-Fluoro-N-(4-fluorophenyl)-2-(pyridin-2-yl)imidazo[1,2-a]pyridin-3-amine]"
4,8,"Fc1ccc(Nc2c(-c3ccccn3)nc3ccccn23)cc1 [Compound 3a, N-(4-Fluorophenyl)-2-(pyridin-2-yl)imidazo[1,2-a]pyridin-3-amine]"

# System: not listed separately
# Experiment: Human liver microsome intrinsic clearance
# Assay type: in vitro ADME
# Conditions: human, human liver microsomes, pH 7.4, HLM clint
row,Compound,microsomal CLint at 3 µM [µL/min/mg]
1,"CSc1ccc2nc(-c3ccccn3)c(Nc3ccc(F)cc3)n2c1 [Compound 3n, N-(4-Fluorophenyl)-6-(methylsulfanyl)-2-(pyridin-2-yl)imidazo[1,2-a]pyridin-3-amine]",247
2,"Fc1ccc(Nc2c(-c3ccccn3)nc3c(F)cccn23)cc1 [Compound 3k, 8-Fluoro-N-(4-fluorophenyl)-2-(pyridin-2-yl)imidazo[1,2-a]pyridin-3-amine]",220
3,"Fc1ccc(Nc2c(-c3ccccn3)nc3cccc(F)n23)cc1 [Compound 3b, 5-Fluoro-N-(4-fluorophenyl)-2-(pyridin-2-yl)imidazo[1,2-a]pyridin-3-amine]",60
4,"COc1ccn2cc(-c3ccccn3)nc2c1 [Compound 11b, 7-Methoxy-2-(pyridin-2-yl)imidazo[1,2-a]pyridine]",> 300
5,"COc1ccn2c(Cl)c(-c3ccccn3)nc2c1 [Compound 12, 3-Chloro-7-methoxy-2-(pyridin-2-yl)imidazo[1,2-a]pyridine]",> 300

# Results, then the compound that gave them:
row,microsomal CLint at 3 µM [µL/min/mg],Compound
1,270,"Fc1ccc(Nc2c(-c3ccccn3)nc3sccn23)cc1 [Compound 3r, N-(4-Fluorophenyl)-6-(pyridin-2-yl)imidazo[2,1-b][1,3]thiazol-5-amine]"
2,143,"COc1cccn2c(Nc3ccc(F)cc3)c(-c3ccccn3)nc12 [Compound 3l, N-(4-Fluorophenyl)-8-methoxy-2-(pyridin-2-yl)imidazo[1,2-a]pyridin-3-amine]"
3,> 300,"Fc1ccc(Nc2c(-c3ccccn3)nc3ccc(F)cn23)cc1 [Compound 3e, 6-Fluoro-N-(4-fluorophenyl)-2-(pyridin-2-yl)imidazo[1,2-a]pyridin-3-amine]"
4,137,"Fc1ccc(Nc2c(-c3ccccn3)nc3ccccn23)cc1 [Compound 3a, N-(4-Fluorophenyl)-2-(pyridin-2-yl)imidazo[1,2-a]pyridin-3-amine]"

# System: not listed separately
# Experiment: Rat hepatocyte intrinsic clearance
# Assay type: in vitro ADME
# Conditions: rat, rat hepatocytes
row,Compound,hepatocyte CLint [µL/min/1e6 cells]
1,"CSc1ccc2nc(-c3ccccn3)c(Nc3ccc(F)cc3)n2c1 [Compound 3n, N-(4-Fluorophenyl)-6-(methylsulfanyl)-2-(pyridin-2-yl)imidazo[1,2-a]pyridin-3-amine]",> 300
2,"Fc1ccc(Nc2c(-c3ccccn3)nc3c(F)cccn23)cc1 [Compound 3k, 8-Fluoro-N-(4-fluorophenyl)-2-(pyridin-2-yl)imidazo[1,2-a]pyridin-3-amine]",101
3,"Fc1ccc(Nc2c(-c3ccccn3)nc3cccc(F)n23)cc1 [Compound 3b, 5-Fluoro-N-(4-fluorophenyl)-2-(pyridin-2-yl)imidazo[1,2-a]pyridin-3-amine]",190
4,"CS(=O)(=O)c1ccc2nc(-c3ccccn3)c(Nc3ccc(F)cc3)n2c1 [Compound 3o, N-(4-Fluorophenyl)-6-methanesulfonyl-2-(pyridin-2-yl)imidazo[1,2-a]pyridin-3-amine]",> 300
5,"COc1ccn2c(Cl)c(-c3ccccn3)nc2c1 [Compound 12, 3-Chloro-7-methoxy-2-(pyridin-2-yl)imidazo[1,2-a]pyridine]",17

# The remaining lines, values ahead:
row,hepatocyte CLint [µL/min/1e6 cells],Compound
1,> 300,"Fc1ccc(Nc2c(-c3ccccn3)nc3sccn23)cc1 [Compound 3r, N-(4-Fluorophenyl)-6-(pyridin-2-yl)imidazo[2,1-b][1,3]thiazol-5-amine]"
2,29,"COc1cccn2c(Nc3ccc(F)cc3)c(-c3ccccn3)nc12 [Compound 3l, N-(4-Fluorophenyl)-8-methoxy-2-(pyridin-2-yl)imidazo[1,2-a]pyridin-3-amine]"
3,> 300,"Fc1ccc(Nc2c(-c3ccccn3)nc3ccc(F)cn23)cc1 [Compound 3e, 6-Fluoro-N-(4-fluorophenyl)-2-(pyridin-2-yl)imidazo[1,2-a]pyridin-3-amine]"
4,> 300,"Fc1ccc(Nc2c(-c3ccccn3)nc3ccccn23)cc1 [Compound 3a, N-(4-Fluorophenyl)-2-(pyridin-2-yl)imidazo[1,2-a]pyridin-3-amine]"
